In patent publication US10041935B2, “Identification of olfactory receptors sensitive to different odorants” (New York University, priority 2013, dated 2018):

Tests used:
[1] = Photoconversion rate difference +/- calcium of purified CaMPARI (400 nm LED array); conditions: purified protein, 5 mM CaCl2 vs 5 mM EGTA
Procedure: (§1) This Example describes procedures performed to characterize the in vitro properties of the fluorescent proteins. First, CaMPARI protein was expressed from the pRSET plasmid (Life Technologies, Carlsbad, Calif.) in T7 Express E. coli cells cultured for 36 h in 100 mL of autoinduction medium supplemented with 100 mg/L ampicillin. Cell pellets were lysed using B-PER (Pierce, Rockford, Ill.) supplemented with 1 mg/mL lysozyme and 1 min. of sonication. After removing insoluble material by centrifugation, CaMPARI protein was purified by immobilized metal affinity chromatograpy on nickel-charged Profinity resin (Bio-Rad, Hercules, Calif.), washing with 10 mM imidazole and eluting with 100 mM imidazole.
(§2) Using these samples, calcium titrations were used to calculate an apparent affinity of the protein for calcium ions. Aliquots of purified CaMPARI protein were mixed with Ca-EGTA solutions calculated to contain a range of free Ca^2+ ions (Life Technologies) and fluorescence was measured in a plate reader. Furthermore, to observe the photoconversion rate difference+/−calcium, purified CaMPARI in 5 mM CaCl2 or 5 mM EGTA were photoconverted using a 400 nm LED array and green and red fluorescence was measured at various time points to fit an exponential rate to the appearance of red fluorescence or the disappearance of green fluorescence.

[2] = Calcium titration of CaMPARI M13-domain variants, sigmoidal fit; assay type: binding; conditions: dissociation constant for calcium, sigmoidal fit to calcium titration data
Procedure: (§3) Other CaMPARI variants were constructed and there include V398L, W391F+V398L, W391F, W391L, V398T, G395D, W391Y, W391Y+V398T, V398D, W391F+G395D, W391F+V398H. The variants were made based on substitutions within the M13 domain of CaMPARI that alter the affinity, cooperativity and kinetics and calcium binding. The magnitude of fluorescence change was similar for all variants. Dissociation constants for calcium (Kd) and Hill coefficients were determined from a sigmoidal fit to calcium titration data. Kinetics of fluorescence decay upon calcium release were determined by rapid mixing with EGTA in a stopped-flow device.

[3] = tested on: cultured rat hippocampal neurons; test: Photoconversion with field electrode stimulation in neurons expressing CaMPARI; assay type: cell-based; conditions: 83 Hz action potentials at the beginning of a 2 s photoconversion pulse
Procedure: First, cultured rat hippocampal neurons were prepared and infected with lentivirus expressing CaMPARI from the human synapsin promoter. The neurons were imaged ten days after infection with a 10× objective before and after various combinations of photoconversion and field electrode-induced action potential firing. Prior to imaging, the neuron cultures were washed with imaging buffer and spontaneous activity was blocked with a drug mix.
Following a 2 s pulse of photoconversion light (1.5 W/cm^2) to CaMPARI-expressing neurons, there was no significant decrease in green fluorescence and a small amount of red fluorescence was visible (FIG. 13A). […] Repeated exposures of CaMPARI-expressing neurons to shorter photoconversion light pulses (0.5 s) led to increasing amounts of red fluorescence signal (FIG. 16A) and red/green ratio (two left bars in FIG. 16B), but the ratio of red-to-green photoconversion between 80 Hz field stimulated and unstimulated neurons remained approximately constant (right-most bars in FIG. 16B). Field electrode stimulation of CaMPARI-expressing neurons (without application of photoconversion light) led to transient decreases in the green fluorescence signal, proportional to the number of induced action potentials (FIG. 17).

[4] = Kinetics of fluorescence decay upon calcium release, rapid mixing with EGTA in stopped-flow device; assay type: binding
Procedure: as §3

[5] = Calcium titration of purified CaMPARI protein, fluorescence in plate reader; assay type: binding
Procedure: as §1, §2

[6] = Fluorescence of purified CaMPARI green and red forms +/- calcium; conditions: purified protein
Procedure: as §1, §2

In the case of “CaMPARI v1: isolated polypeptide comprising CaM, EosFP, and M13, SEQ ID NO: 1; Calcium-Modulated Photoactivatable Ratiometric Integrator”, the “faster green-to-red photoconversion rate in the presence of calcium” value [1] is reported as 29 fold, the Kd [2] is reported as 111 nM and the “more green-to-red photoconversion for 160 action potentials relative to 0” value [3] is reported as “up to 12 fold”. For the same substance, the koff [4] was 0.25 s⁻¹, the Kd ([5]; purified protein, without N-terminal NES, estimated from fluorescence change with increasing calcium, read-out: dissociation constant (Kd)) was 130 nM and the Kd ([5]; with nuclear export signal (NES) added to the N-terminus, read-out: Kd) was 106 nM. For the same substance, the “green form less fluorescent in the presence of calcium” value ([6]; green form) was 8 fold and the “red form less fluorescent in the presence of calcium” value ([6]; red form) was 34 fold.
